For 23 compounds, IC50 results are on record in patent EP2441755A1 (Almirall, S.A., priority 2010, dated 2012).

Assay [1] deals with T1, Recombinant human full-length Syk (Homo sapiens, UniProt P43405).
T1 construct: Recombinant human full-length Syk was supplied by Millipore; purchased Millipore
The experiment in a line: Syk enzyme assay - radioactive filtration kinase assay. It counts as biochemical. As to the method:
Syk Enzyme assay- Radioactive filtration kinase assay
Recombinant human full-length Syk was supplied by Millipore. The activity of Syk kinase was assessed using a radioactive filtration kinase assay. […] The reaction was initiated by the addition of 14.5 µl of 0.36 µCi [γ-^33P] ATP (10 mCi/ml, PerkinElmer). This was prepared in a half-area NBS plate (Corning) and allowed to stand at room temperature for 40 min. 15 µl of reaction mixture was transferred to a filter plate (Millipore) previously pre-wetted with a solution of 75 mM phosphoric acid. The reaction was terminated with the addition of 200 µl phosphoric acid. The filter plate was washed three times under vacuum on a vacuum manifold (Millipore cat# MSVMHTS00) at 8" Hg vacuum level with 200 µl phosphoric acid per wash. 30 µl Optiphase™ Supermix (PerkinElmer) was added to each test well and allowed to incubate for at least 1 h before counting. Radioactivity counting was performed in a Wallac MicroBeta®, and the tyrosine phosphorylation activity by Syk was calculated.

Assay [2] has as its system LAD2 cells. The experiment in a line: LAD2 cells assay (degranulation, β-hexosaminidase release). It counts as cell-based. The settings on record: Homo sapiens. The source says:
LAD2 is a human mast cell line depending on stem cell factor for its survival, maturation and differentiation. This mast cell line was established by the NIH from bone marrow aspirates from a patient with mast cell sarcoma. LAD2 cells resemble CD34+ - derived human mast cells as they have granules containing tryptase, histamine and β-hexosaminidase. They also express c-kit and FcεRI (Kirshenbaum, et al., Leukemia Research 27: 677-682, 2003).
Sensitization of LAD2 cells
Cells were sensitized (0.2x10^6 cells/ml) in its normal growth factor (Complete StemPro-34 SFM, Gibco 10639-011 containing StemPro-34 nutrient supplement (1/40); glutamine (2 mM) and supplemented with 100 ng/ml SCF) by adding 100 ng/ml of biotin-labeled IgE (USBiological) overnight (16-18 h, 37º, 5% CO2) in a humidified atmosphere (90%).
Compounds were prepared from a 10^-2M stock in 100% DMSO to give seven successive 1/3 dilutions in DMSO. From each concentration, 2 further 1/10 dilutions were prepared in release buffer (137 mM NaCl, 2.70 mM KCI, 0.4 mM NaH2PO4, 5.6 mM (D)-glucose, 1.8 mM CaCl2, 1.3 mM MgSO4, 0.025% BSA). Finally, 5 µl from each diluted concentration were transferred into the assay plate (flat 96-well Nunc). The final compound concentrations tested ranged from 1x10^-5M to […] with a final proportion of DMSO in the assay of 0.1 %. Control wells were treated with 0.1 % DMSO.
Sensitized LAD2 cells were centrifuged (300 g, 3 min, R.T.) and washed 2 times with release buffer. Cells were resuspended in release buffer and adjusted to a density of 0.2x10^6/ml. 45 µl of the adjusted cells were transfered to the assay plate (∼10,000cells/well) containg 5 µl of the final compound concentrations. LAD2 cells were incubated with the compound for 30 min (37 °C, 5% CO2 90% of humidity) and then activated with 125 ng/ml of streptavidin (Pierce 21125) for 30 min (37 °C, 5% CO2, 90% of humidity). After the activation, cells were centrifuged at 1200 g, 10 min, 12 °C and supernatats were removed and transfered to another well for determination of released β-hexosaminidase. Empty wells were filled with 50 µl of release buffer for determination of intracellular β-hexosaminidase. Cells were lysed with 2 cycles of freeze-thaw.
Cells were incubated for 90 minutes, 37 °C with 1 mM β-hexosaminidase substrate (p-nitrophenyl N-acetyl-D-glucosamide, in citric buffer, pH 4.5). Reaction was stopped with 0.4 M glycine solution (pH 10.0) and the plate is read immediately at 405 nm.

Setting [3] is: 0.5 h, IgE-sensitized LAD2 cells, 30 min with compound, activated with 125 ng/ml streptavidin, released β-hexosaminidase, read-out: LAD2IC50.
The mark [4] stands for this setting: Syk 1nM final, poly-GT 100 µg/ml, [γ-33P] ATP, 40 min at room temperature, read-out: Syk IC50.

Like-named read-outs stand apart in the source and are kept apart here.

As for `Cc1ccnc(Nc2cccc(-c3ccnc(N4CCNCC4)c3)n2)c1` [Example 14, N-(4-Methylpyridin-2-yl)-2'-piperazin-1-yl-2,4'-bipyridin-6-amine], the IC50 in assay [1] was found to be 14 nM; in assay [2] (setting [3]), 70 nM.

With `NCCc1cccc(-c2cccc(Nc3cc(C(F)(F)F)ccn3)n2)c1` [Example 20, N-{6-[3-(2-Aminoethyl)phenyl]pyridin-2-yl}-4-(trifluoromethyl)pyridin-2-amine], the IC50 in assay [1] (setting [4]) is 8 nM; in assay [2] (setting [3]), 186 nM.

As to `FC(F)(F)c1ccnc(Nc2cccc(-c3cccc(C4CCNCC4)c3)n2)c1` [Example 22, N-[6-(3-Piperidin-4-ylphenyl)pyridin-2-yl]-4-(trifluoromethyl)pyridin-2-amine], the IC50 was found to be 1.18 nM in assay [1] (setting [4]) and 368 nM in assay [2] (setting [3]).

`FC(F)(F)c1ccnc(Nc2cccc(-c3cccc(N4CCNCC4)c3)n2)c1` [Example 23, N-[6-(3-Piperazin-1-ylphenyl)pyridin-2-yl]-4-(trifluoromethyl)pyridin-2-amine]: the IC50 came to 0.56 nM in assay [1] and 331 nM in assay [2] (setting [3]).

Regarding `FC(F)(F)c1ccnc(Nc2cccc(-c3ccnc(N4CCNCC4)c3)n2)c1` [Example 26, 2'-Piperazin-1-y)-N-[4-(trifluoromethy))pyridin-2-y)]-2,4'-bipyridin-6-amine], the figures for the IC50 in assay [1] and in assay [2] (setting [3]) were 1.8 nM and 206 nM, respectively.

Consider `C1=C(c2cccc(-c3cccc(Nc4cnccn4)n3)c2)CCNC1` [Example 29, N-{6-[3-(1,2,3,6-Tetrahydropyridin-4-y))pheny)]pyridin-2-y)}pyrazin-2-amine], for which the IC50 in assay [1] (setting [4]) worked out at 20 nM; in assay [2] (setting [3]), 183 nM.

For the compound `Cc1ccnc(Nc2cc3ccccc3c(-c3ccnc(N4CCNCC4)c3)n2)c1` [Example 52, N-(4-Methylpyridin-2-yl)-1-(2-piperazin-1-ylpyridin-4-yl)isoquinolin-3-amine], the IC50 in assay [1] (setting [4]) came out at 18 nM; in assay [2] (setting [3]), 434 nM.

As for `O=C(Nc1cc(Nc2cnccn2)nc(-c2ccnc(N3CCNCC3)c2)c1)c1cccc(C(F)(F)F)c1` [Example 76, N-[2'-Piperazin-1-yl-6-(pyrazin-2-ylamino)-2,4'-bipyridin-4-yl]-3-(trifluoromethyl) benzamide], the IC50 in assay [1] (setting [4]) came out at 7 nM; in assay [2] (setting [3]) it was 310 nM.

For the compound `O=C(Nc1cc(Nc2cnccn2)nc(-c2ccnc(N3CCNCC3)c2)c1)c1ccc2c(c1)OCO2` [Example 77, N-[2'-Piperazin-1-yl-6-(pyrazin-2-ylamino)-2,4' -bipyridin-4-yl]-1,3-benzodioxole-5-Carboxamide], the IC50 in assay [1] (setting [4]) was determined as 9 nM; in assay [2] (setting [3]), 230 nM.

Regarding `COc1ccc(C(=O)Nc2cc(Nc3cnccn3)nc(-c3ccnc(N4CCNCC4)c3)c2)cc1` [Example 81, 4-Methoxy-N-[2'-piperazin-1-yl-6-(pyrazin-2-ylamino)-2,4'-bipyridin-4-yl]benzamide], the results for the IC50 in assay [1] (setting [4]) and in assay [2] (setting [3]) were 12 nM and 430 nM, respectively.

As to `O=C(CCc1ccccc1)Nc1cc(Nc2cnccn2)nc(-c2ccnc(N3CCNCC3)c2)c1` [Example 82, 3-Phenyl-N-[2'-piperazin-1-yl-6-(pyrazin-2-ylamino)-2,4'-bipyridin-4-yl]propanamide], the IC50 in assay [1] (setting [4]) amounted to 8 nM; in assay [2] (setting [3]), 280 nM.

For the compound `Cc1cc(C(=O)Nc2cc(Nc3cnccn3)nc(-c3ccnc(N4CCNCC4)c3)c2)n(C)n1` [Example 83, 1,3-Dimethyl-N-[2'-piperazin-1-yl-6-(pyrazin-2-ylamino)-2,4'-bipyridin-4-yl]-1H-pyrazole-5-Carboxamide], the values for the IC50 in assay [1] and in assay [2] (setting [3]) were 7 nM and 170 nM, respectively.

`COC(=O)c1cccc(C(=O)Nc2cc(Nc3cnccn3)nc(-c3ccnc(N4CCNCC4)c3)c2)c1` [Example 87, Methyl 3-({[2'-piperazin-1-yl-6-(pyrazin-2-ylamino)-2,4'-bipyridin-4-yl]amino}carbonyl)benzoate]: the IC50 in assay [1] (setting [4]) was 6 nM; in assay [2] (setting [3]) it was 330 nM.

As for `O=C(Cc1cccnc1)Nc1cc(Nc2cnccn2)nc(-c2ccnc(N3CCNCC3)c2)c1` [Example 89, N-[2'-Piperazin-1-yl-6-(pyrazin-2-ylamino)-2,4'-bipyridin-4-yl]-2-pyridin-3-ylacetamide], the IC50 in assay [1] worked out at 4 nM; in assay [2] (setting [3]) it was 350 nM.

As for `O=C(Nc1cc(Nc2cnccn2)nc(-c2ccnc(N3CCNCC3)c2)c1)c1cncnc1` [Example 95, N-[2'-Piperazin-1-yl-6-(pyrazin-2-ylamino)-2,4'-bipyridin-4-yl]pyrimidine-5-Carboxamide], the IC50 in assay [1] came to 9 nM; in assay [2] (setting [3]), 320 nM.

In the case of `O=C(Nc1cc(Nc2cnccn2)nc(-c2ccnc(N3CCNCC3)c2)c1)c1ccc(C(=O)O)nc1` [Example 96, 5-({[2'-Piperazin-1-yl-6-(pyrazin-2-ylamino)-2,4'-bipyridin-4-yl]amino}carbonyl) pyridine-2-Carboxylic acid], the IC50 in assay [1] came to 10 nM; in assay [2] (setting [3]), 200 nM.

Regarding `O=C(C[C@H](Cc1ccccc1)C(=O)O)Nc1cc(Nc2cnccn2)nc(-c2ccnc(N3CCNCC3)c2)c1` [Example 98, (2S)-2-Benzyl-4-oxo-4-{[2'-piperazin-1-yl-6-(pyrazin-2-ylamino)-2,4'-bipyridin-4-yl]amino}butanoic acid], the figures for the IC50 in assay [1] (setting [4]) and in assay [2] (setting [3]) were 16 nM and 82 nM, respectively.

With `CC(=O)Nc1cc(Nc2cnccn2)nc(-c2ccnc(N3CCNCC3)c2)c1` [Example 101, N-[2'-Piperazin-1-yl-6-(pyrazin-2-ylamino)-2,4'-bipyridin-4-yl]acetamide], the IC50 in assay [1] (setting [4]) was 8 nM; in assay [2] (setting [3]) it was 117 nM.

For `O=C(O)C[C@H](Cc1ccccc1)NC(=O)c1cccc(C(=O)Nc2cc(Nc3cnccn3)nc(-c3ccnc(N4CCNCC4)c3)c2)c1` [Example 109, (3S)-4-Phenyl-3-{[3-({[2'-piperazin-1-yl-6-(pyrazin-2-ylamino)-2,4'-bipyridin-4-yl]amino}carbonyl)benzoyl]amino}butanoic acid], the values for the IC50 in assay [1] (setting [4]) and in assay [2] (setting [3]) were 13 nM and 100 nM, respectively.

As to `Nc1cc(Nc2cnccn2)nc(-c2ccnc(N3CCNCC3)c2)c1` [Example 127, 2'-Piperazin-1-yl-N^6-pyrazin-2-yl-2,4'-bipyridine-4,6-diamine], the IC50 in assay [1] turned out to be 4 nM; in assay [2] (setting [3]), 118 nM.

Turning to `CNc1cc(Nc2cnccn2)nc(-c2ccnc(N3CCNCC3)c2)c1` [Example 128, N^4-Methyl-2'-(piperazin-1-yl)-N^6-(pyrazin-2-yl)-2,4'-bipyridine-4,6-diamine], the IC50 stood at 4.1 nM in assay [1] and 190 nM in assay [2] (setting [3]).

Consider `OC1CCN(c2cc(Nc3cnccn3)nc(-c3ccnc(N4CCNCC4)c3)c2)CC1` [Example 130, 1-(2'-(Piperazin-1-yl)-6-(pyrazin-2-ylamino)-2,4'-bipyridin-4-yl)piperidin-4-ol], for which the results for the IC50 in assay [1] (setting [4]) and in assay [2] (setting [3]) were 8.2 nM and 400 nM, respectively.

Regarding `Nc1cc(Nc2cnccn2)nc(-c2cncc(N3CCNCC3)c2)c1` [Example 138], the IC50 turned out to be 2.5 nM in assay [1] (read-out: Syk IC50, Syk 1nM final, poly-GT 100 µg/ml, [γ-33P] ATP, 40 min at room temperature) and 150 nM in assay [2] (LAD2, 0.5 h, read-out: LAD2IC50(nM)).
